The values that follow come from ChEMBL document CHEMBL1201862, “PubChem BioAssay data set” (2004).

Each structure is given as a SMILES string.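 The compound was tested at five concentrations on cells cultured in 96-well plates, with a 48-hour exposure period. At the GI50, growth is halved.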 Calls of active or inactive are those of the source. Rule as the data show it: active = GI50 up to about 1.1 µM and inactive = higher.

Test systems include A498; A549; CAKI-1; DU-145; EKVX; HL-60; HOP-92; HT-29; IGROV-1; K562; LOX IMVI; MCF7; MDA-MB-231; NCI-H522; NCI/ADR-RES; RXF 393; SF-268; SF-295; SN12C; SNB-75.
What all share (experiment): growth of human tumour cells (NCI), 48 h

Take `COCCOCCOC1=CC(=O)c2c(O)ccc(O)c2C1=O`: the GI50 in the test on A498 was 2.67 µM (inactive); in the test with A549, 1.75 µM (inactive); with CAKI-1 it was 0.729 µM (active); with DU-145, 1.49 µM (inactive); with EKVX, 2.86 µM (inactive); with HL-60, 0.505 µM (active). Besides, the GI50 with HOP-92 was 2.18 µM (inactive); in the test with HT-29, 0.518 µM (active); in the test with IGROV-1 it was 1.82 µM (inactive); in the test on K562, 0.671 µM (active); in the test on LOX IMVI it was 1.52 µM (inactive); with MCF7, 0.555 µM (active). The GI50 with MDA-MB-231 was 1.49 µM (inactive); with NCI-H522, 1.57 µM (inactive); in the test with NCI/ADR-RES it was 1.96 µM (inactive); with RXF 393, 2.07 µM (inactive); in the test on SF-268, 2.59 µM (inactive); in the test with SF-295, 1.82 µM (inactive). Besides, the values for the GI50 in the test on SN12C and with SNB-75 were 1.96 µM (inactive) and 1.82 µM (inactive), respectively.

Turning to `O=Cc1[nH]c(=O)[nH]c(=O)c1CCl`, the GI50 in the test on A498 was > 100 µM (inactive); in the test on A549, > 100 µM (inactive); with CAKI-1, > 100 µM (inactive); in the test on DU-145 it was > 100 µM (inactive); with EKVX it was > 100 µM (inactive); with HL-60 it was 38 µM (inactive). The GI50 in the test with HOP-92 is > 62.1 µM (inactive); with HT-29, > 88.9 µM (inactive); in the test with IGROV-1 it was > 100 µM (inactive); with K562 it was 50.8 µM (inactive); in the test on LOX IMVI it was 30 µM (inactive); in the test with MCF7, > 65.8 µM (inactive). The GI50 was > 100 µM (inactive) with MDA-MB-231; > 100 µM (inactive) in the test with NCI-H522; > 100 µM (inactive) with NCI/ADR-RES; 71.6 µM (inactive) in the test with RXF 393; > 59.3 µM (inactive) in the test on SF-268; > 100 µM (inactive) in the test with SF-295. Further, the GI50 is > 100 µM (inactive) in the test on SN12C and 10.9 µM (inactive) with SNB-75.

Consider `Cn1c2ccccc2c2ccc3c(c21)C(=O)c1ccc2c4ccccc4n(C)c2c1C3=O`, for which the GI50 in the test on A498, in the test on A549, in the test with CAKI-1, in the test with DU-145, with EKVX and with HL-60 was > 100 µM (inactive) each time. In addition, the GI50 in the test with HOP-92 was > 100 µM (inactive); in the test with HT-29, > 100 µM (inactive); with IGROV-1, > 100 µM (inactive); in the test on K562 it was > 100 µM (inactive); with LOX IMVI, > 100 µM (inactive); in the test on MCF7, 97.1 µM (inactive). Moreover, the GI50 with MDA-MB-231, in the test on NCI-H522, with NCI/ADR-RES, in the test on RXF 393, in the test with SF-268 and in the test with SF-295 was > 100 µM (inactive) throughout. Further, the GI50 with SN12C and in the test on SNB-75 was > 100 µM (inactive) each time.

Take `COP(=O)(OC)[C@@](O)(c1ccccc1)[C@@H](O)[C@H](O)c1ccccc1`: the GI50 in the test with A498, in the test with A549, with CAKI-1, in the test with DU-145, with EKVX and with HL-60 was > 100 µM (inactive) each time. Besides, the GI50 in the test with HOP-92 was > 100 µM (inactive); in the test on HT-29, > 100 µM (inactive); in the test with IGROV-1, > 100 µM (inactive); in the test with K562 it was 60.1 µM (inactive); in the test with LOX IMVI, 21.1 µM (inactive); with MCF7 it was 22.5 µM (inactive). Besides, the GI50 with MDA-MB-231, with NCI-H522, in the test with NCI/ADR-RES, with RXF 393, in the test on SF-268 and with SF-295 was > 100 µM (inactive) in each case. Further, the GI50 in the test on SN12C and with SNB-75 was > 100 µM (inactive) throughout.

`Oc1ccccc1/C=N/c1nc2cc3sc(/N=C/c4ccccc4O)nc3cc2s1`: the GI50 is 26.3 µM (inactive) in the test with A498; 6.98 µM (inactive) with A549; 37.2 µM (inactive) in the test on CAKI-1; > 48.6 µM (inactive) in the test with DU-145; 51.4 µM (inactive) with EKVX; 4.44 µM (inactive) with HL-60. Moreover, the GI50 was > 100 µM (inactive) in the test on HOP-92; 26.2 µM (inactive) in the test on HT-29; 60 µM (inactive) with IGROV-1; 67.3 µM (inactive) in the test on K562; 34.2 µM (inactive) in the test on LOX IMVI; 12.5 µM (inactive) in the test on MCF7. Moreover, the GI50 was > 100 µM (inactive) in the test with MDA-MB-231; 9.77 µM (inactive) in the test on NCI-H522; > 100 µM (inactive) in the test on NCI/ADR-RES; > 32.7 µM (inactive) in the test with RXF 393; 50.9 µM (inactive) with SF-268; > 54.3 µM (inactive) in the test on SF-295. In addition, the values for the GI50 with SN12C and in the test with SNB-75 were > 60.5 µM (inactive) and > 78 µM (inactive), respectively.
